The target in data set [1] is T1, human cloned 5-HT2A receptor, expressed in L929 cells (Homo sapiens, UniProt P28223).
T1 construct: expressed in transfected cells; host or cells: L929 cells
As to the kind of experiment: In vitro radioligand binding affinity for 5-HT2A receptor ([125I]R91150). As for the experimental part:
The interaction of the compounds of Formula (I) with 5-HT2A and 5-HT2C receptors was assessed in in vitro radioligand binding experiments. In general, a low concentration of a radioligand with a high binding affinity for the receptor is incubated with a sample of a tissue preparation enriched in a particular receptor (1 to 5 mg tissue) in a buffered medium (0.2 to 5 ml). During the incubation, the radioligands bind to the receptor. When equilibrium of binding is reached, the receptor bound radioactivity is separated from the non-bound radioactivity, and the receptor bound activity is counted. The interaction of the test compounds with the receptors is assessed in competition binding experiments. Various concentrations of the test compound are added to the incubation mixture containing the tissue preparation and the radioligand. Binding of the radioligand will be inhibited by the test compound in proportion to its binding affinity and its concentration. The affinities of the compounds for the 5-HT2 receptors were measured by means of radioligand binding studies conducted with: (a) human cloned 5-HT2A receptor, expressed in L929 cells using [^125I]R91150 as radioligand and (b) human cloned 5-HT2C receptor, expressed in CHO cells using [^3H]mesulergine as radioligand.

Data set [2] has as its target T2, human cloned 5-HT2C receptor, expressed in CHO cells (Homo sapiens, UniProt P28335).
T2 construct: expressed in transfected cells; host or cells: CHO cells
T2 sequence (P28335 33-458): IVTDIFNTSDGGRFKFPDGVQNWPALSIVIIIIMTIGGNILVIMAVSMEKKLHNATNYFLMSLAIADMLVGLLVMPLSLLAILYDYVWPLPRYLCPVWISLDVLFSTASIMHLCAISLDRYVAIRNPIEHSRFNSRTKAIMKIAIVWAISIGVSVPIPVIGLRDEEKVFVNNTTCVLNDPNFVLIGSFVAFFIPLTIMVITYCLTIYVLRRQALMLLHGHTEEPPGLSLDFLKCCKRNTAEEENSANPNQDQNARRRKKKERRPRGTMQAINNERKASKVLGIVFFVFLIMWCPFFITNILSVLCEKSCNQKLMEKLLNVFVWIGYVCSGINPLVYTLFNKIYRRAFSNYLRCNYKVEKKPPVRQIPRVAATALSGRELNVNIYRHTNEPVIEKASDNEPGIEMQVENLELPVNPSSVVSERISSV
The data set can be described thus: In vitro radioligand binding affinity for 5-HT2C receptor ([3H]mesulergine). The following applies: human cloned 5-HT2C receptor in CHO cells, [3H]mesulergine; read-out: h-5HT2C (converted). Here is the method:
The interaction of the compounds of Formula (I) with 5-HT2A and 5-HT2C receptors was assessed in in vitro radioligand binding experiments. […] During the incubation, the radioligands bind to the receptor. When equilibrium of binding is reached, the receptor bound radioactivity is separated from the non-bound radioactivity, and the receptor bound activity is counted. The interaction of the test compounds with the receptors is assessed in competition binding experiments. Various concentrations of the test compound are added to the incubation mixture containing the tissue preparation and the radioligand. Binding of the radioligand will be inhibited by the test compound in proportion to its binding affinity and its concentration.

The target of data set [3] is T3, human Dopamine D2L receptor (Homo sapiens, UniProt P14416).
T3 construct: expressed in transfected cells; host or cells: CHO cells (frozen membranes)
The data set can be described thus: In vitro binding affinity for human D2L receptor ([3H]Spiperone). The following applies: human D2L receptor-transfected CHO cell membranes, [3H]Spiperone; read-out: h-D2L (converted). Here is the method: Frozen membranes of human Dopamine D2L receptor-transfected CHO cells were thawed, briefly homogenised using an Ultra-Turrax T25 homogeniser and diluted in Tris-HCl assay buffer containing NaCl, CaCl2, MgCl2, KCl (50, 120, 2, 1, and 5 mM respectively, adjusted to pH 7.7 with HCl) to an appropriate protein concentration optimised for specific and non-specific binding. Radioligand [^3H]Spiperone (NEN, specific activity ˜70 Ci/mmol) was diluted in assay buffer at a concentration of 2 nmol/L. Prepared radioligand (50 μl), along with 50 μl of either the 10% DMSO control, Butaclamol (10-6 mol/l final concentration), or compound of interest, was then incubated (30 min, 37° C.) with 400 μl of the prepared membrane solution. Membrane-bound activity was filtered through a Packard Filtermate harvester onto GF/B Unifilterplates and washed with ice-cold Tris-HCl buffer (50 mM; pH 7.7; 6×0.5 ml). Filters were allowed to dry before adding scintillation fluid and counting in a Topcount scintillation counter. Percentage specific bound and competition binding curves were calculated using S-Plus software (Insightful).

For the next data set, the target named is T4, NET (Rattus norvegicus, UniProt Q9WTR4).
T4 construct: Cortex from rat brain was collected and homogenised; from tissue; host or cells: rat brain cortex membranes
As to the kind of experiment: In vitro determination of NET reuptake inhibition ([3H]Nixosetine binding, rat brain cortex membranes). Here is the method: Cortex from rat brain was collected and homogenised using an Ultra-Turrax T25 and a Dual homogeniser in ice-cold homogenising buffer containing Tris, NaCl and KCl (50 mM, 120 mM and 5 mM, respectively, pH 7.4) prior to dilution to an appropriate protein concentration optimised for specific and non-specific binding. […] Membrane-bound activity was detected by filtration through a Packard Filtermate harvester onto GF/B Unifilterplates, washed with ice-cold Tris-HCl buffer, containing NaCl and KCl (50 mM, 120 mM and 4 mM; pH 7.4; 6×0.5 ml). Filters were allowed to dry for 24 h before adding scintillation fluid. Scintillation fluid was allowed to saturate filters for 24 h before counting in a Topcount scintillation counter. Percentage specific bound and competition binding curves were calculated using S-Plus software (Insightful).

The mark [4] stands for this setting: human cloned 5-HT2A receptor in L929 cells, [125I]R91150, read-out: h-5HT2A (converted).

Like-named read-outs stand apart in the source and are kept apart here. A value given as a limit tells only on which side of the number the result lay.

T1 sequence (P28223 whole entry): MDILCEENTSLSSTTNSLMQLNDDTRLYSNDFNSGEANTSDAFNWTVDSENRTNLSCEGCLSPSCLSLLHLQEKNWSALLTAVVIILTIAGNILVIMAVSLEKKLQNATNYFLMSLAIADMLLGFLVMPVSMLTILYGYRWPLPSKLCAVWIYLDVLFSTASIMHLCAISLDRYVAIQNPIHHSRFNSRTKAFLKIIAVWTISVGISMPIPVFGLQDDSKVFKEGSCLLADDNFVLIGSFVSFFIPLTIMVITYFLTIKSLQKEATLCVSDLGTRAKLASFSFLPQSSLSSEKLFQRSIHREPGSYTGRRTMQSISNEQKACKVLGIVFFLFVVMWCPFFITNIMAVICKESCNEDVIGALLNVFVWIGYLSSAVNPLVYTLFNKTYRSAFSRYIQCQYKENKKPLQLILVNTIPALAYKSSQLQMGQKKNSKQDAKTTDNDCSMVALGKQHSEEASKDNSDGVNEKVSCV
T4 sequence (Q9WTR4 1-597): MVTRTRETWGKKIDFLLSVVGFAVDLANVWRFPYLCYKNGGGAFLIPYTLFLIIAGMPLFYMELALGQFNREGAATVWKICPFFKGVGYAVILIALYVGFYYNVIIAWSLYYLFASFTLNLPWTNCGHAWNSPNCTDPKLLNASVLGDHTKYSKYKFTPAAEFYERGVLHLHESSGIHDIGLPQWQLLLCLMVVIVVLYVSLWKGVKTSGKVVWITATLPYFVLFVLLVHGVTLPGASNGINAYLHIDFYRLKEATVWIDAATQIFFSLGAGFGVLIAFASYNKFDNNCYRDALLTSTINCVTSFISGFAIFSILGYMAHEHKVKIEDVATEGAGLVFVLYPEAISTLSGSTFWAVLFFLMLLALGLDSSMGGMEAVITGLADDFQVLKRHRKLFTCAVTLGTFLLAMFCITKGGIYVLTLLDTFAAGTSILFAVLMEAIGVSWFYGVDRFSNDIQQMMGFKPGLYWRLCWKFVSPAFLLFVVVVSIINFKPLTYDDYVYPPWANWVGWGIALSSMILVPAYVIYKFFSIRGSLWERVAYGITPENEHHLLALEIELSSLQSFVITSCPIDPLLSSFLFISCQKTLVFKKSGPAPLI
T3 sequence (P14416 whole entry): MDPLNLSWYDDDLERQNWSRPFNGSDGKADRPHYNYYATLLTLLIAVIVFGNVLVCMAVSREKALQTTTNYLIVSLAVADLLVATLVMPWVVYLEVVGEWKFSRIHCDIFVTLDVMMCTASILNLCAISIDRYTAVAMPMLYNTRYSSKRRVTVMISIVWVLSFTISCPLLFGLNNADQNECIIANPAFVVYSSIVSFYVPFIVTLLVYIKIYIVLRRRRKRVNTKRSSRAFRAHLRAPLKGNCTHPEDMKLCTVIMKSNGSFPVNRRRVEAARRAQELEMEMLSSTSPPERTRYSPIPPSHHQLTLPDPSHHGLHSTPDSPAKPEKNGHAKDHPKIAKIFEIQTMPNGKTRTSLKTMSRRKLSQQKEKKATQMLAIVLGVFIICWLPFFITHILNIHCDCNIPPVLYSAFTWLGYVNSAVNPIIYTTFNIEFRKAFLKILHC

Take `CNC1CO[C@H]2c3cc(F)ccc3Cc3ccccc3[C@H]2C1` (stereo in doubt) [compound 33, (3R,4aR,13bR)-12-fluoro-N-methyl-2,3,4,4a,9,13b-hexahydrodibenzo[3,4:6,7]cyclo-hepta[1,2-b]pyran-3-amine]: the melting point (in general, the temperature of the solid-liquid transition) lay within 55 to 56 °C.

The compound `Fc1ccc2c(c1)[C@@H]1[C@H](C[C@@H]3CNC(=S)N31)c1ccccc1C2` [compound 8, (4aS,13bR,14aR)-6-fluoro-1,4a,9,13b,14,14a-hexahydrodibenzo[3 ′,4′:6′,7′]cyclohepta-[1′,2′:4,5]pyrrolo[1,2-c]imidazole-3(2H)-thione] registered a melting point of 150 to 151 °C. The same compound had an IC50 in data set [1] of 0.0851 µM. In addition, the IC50 in data set [2] is 0.251 µM. In addition, in data set [3], the IC50 was above 10 µM. For the same compound, at NET, the “NET Reuptake Inhibition” value was determined as 5.66.

`CN(C)C[C@@H]1C[C@@H]2c3ccccc3Cc3ccc(F)cc3[C@H]2[S@@+]1[O-]` [compound 26, [(2S,3aR,12bS)-11-fluoro-1-oxido-3,3a,8,12b-tetrahydro-2H-dibenzo[3,4:6,7]-cyclohepta[1,2-b]thien-2-yl]-N,N-dimethylmethanamine]: the IC50 (in data set [1] (setting [4]); in data set [2]; in data set [3]; on NET) was above 10 µM throughout.

As to `O[C@H]1CO[C@H]2c3cc(F)ccc3Cc3ccccc3[C@H]2C1` [compound 29, (3R,4aR,13bR)-12-fluoro-2,3,4,4a,9,13b-hexahydrodibenzo[3,4:6,7]cyclohepta[1,2-b]-pyran-3-ol], the melting point lay in the range of 59 to 61 °C.

Compound `N[C@@H]1CO[C@H]2c3cc(F)ccc3Cc3ccccc3[C@H]2C1` [compound 30, (3S,4aR,13bR)-12-fluoro-2,3,4,4a,9,13b-hexahydrodibenzo[3,4:6,7]cyclohepta[1,2-b]pyran-3-amine] displayed a melting point of 74 to 76 °C. Further, the IC50 in data set [1] (setting [4]) was 0.269 µM. Also, the IC50 in data set [2] was 0.145 µM. Further, the IC50 in data set [3] was above 1 µM. The compound further showed an IC50 on NET of 0.302 µM.

For `O=C1CO[C@H]2c3cc(F)ccc3Cc3ccccc3[C@H]2C1` [compound 31, (4aR,13bR)-12-fluoro-4,4a,9,13b-tetrahydrodibenzo[3,4:6,7]cyclohepta[1,2-b]pyran-3(2H)-one], the melting point lay within 146 to 148 °C.

With `CN(C)[C@@H]1CO[C@H]2c3cc(F)ccc3Cc3ccccc3[C@H]2C1` [compound 32, (3S,4aR,13bR)-12-fluoro-N,N-dimethyl-2,3,4,4a,9,13b-hexahydrodibenzo[3,4:6,7]-cyclohepta[1,2-b]pyran-3-amine], the melting point lay within 58 to 59 °C. For the same compound, in data set [1] (setting [4]), the IC50 was 0.676 µM. The IC50 in data set [2] is 0.132 µM. Besides, in data set [3], the IC50 was above 1 µM. The IC50 at NET is 0.0195 µM.

On to `CNC[C@H]1C[C@@H]2c3ccccc3Cc3ccc(F)cc3[C@H]2N1C=O` [compound 38, (2R,3aR,12bS)-11-fluoro-2-[(methylamino)methyll]-3,3a,8,12b-tetrahydrodibenzo-[3,4:6,7]cyclohepta[1,2-b]pyrrole-1 (2H)-carbaldehyde], for which the IC50 in data set [1] (setting [4]) is 0.631 µM; in data set [2], 0.186 µM; in data set [3], 7.08 µM; at NET, 0.49 µM.

Consider `CN(C)C[C@H]1C[C@@H]2c3ccccc3Cc3ccc(F)cc3[C@H]2N1CCO` [compound 39, 2-((2R,3aR,12bS)-2-[(dimethylamino)methyl]-11-fluoro-3,3a,8,12b-tetrahydrodibenzo-[3,4:6,7]cyclohepta[1,2-b]pyrrol-1(2H)-yl)ethanol], for which the melting point was 88 to 90 °C. Besides, in data set [1] (setting [4]), the IC50 was 0.0871 µM. For the same compound, the IC50 in data set [2] was 0.0468 µM. Further, the IC50 in data set [3] is above 1 µM. Moreover, the IC50 at NET was 0.126 µM.

For the compound `COCCN1[C@@H](CN(C)C)C[C@@H]2c3ccccc3Cc3ccc(F)cc3[C@H]21` [compound 40, [(2R,3aR,12bS)-11-Fluoro-1-(2-methoxyethyl)-1,2,3,3a,8,12b-hexahydrodibenzo-[3,4:6,7]-cyclohepta[1,2-b]pyrrol-2-yl]-N,N-dimethylmethanamine], the IC50 is 0.372 µM in data set [1] (setting [4]), 0.263 µM in data set [2], above 1 µM in data set [3] and 0.479 µM on NET.

`CNC[C@H]1CC[C@@H]2c3ccccc3Cc3ccc(F)cc3[C@H]2O1` [compound 46, [(2R,4aR,13bS)-12-fluoro-2,3,4,4a,9,13b-hexahydrodibenzo[3,4:6,7]cyclohepta-[1,2-b]pyran-2-yl]-N-methylmethanamine]: the IC50 is 0.0138 µM in data set [1] (setting [4]), 0.00589 µM in data set [2], 6.31 µM in data set [3] and 0.398 µM on NET.

(Values after patent US20090023721A1, “Novel Substituted Tetracyclic Tetrahydrofuran, Pyrrolidine and Tetrahydrothiophene Derivatives and Their Use as a Medicament” (priority 2005, published 2009).)
